Reference: patent US20140100156A1 (SANOFI, priority 2012, published 2014)

How the values were obtained:
Type in all cases: in vivo
[1] = tested on: female diet-induced obese (DIO) C57BL/6NCrl mice; assay: Acute effect on blood glucose in fed female diet-induced obese (DIO) C57BL/6NCrl mice
Source text: Female C57BL/6NCrl mice were housed in groups in a specific pathogen-free barrier facility on a 12-h light/dark cycle with free access to water and high-fat diet. After 10 months on high-fat diet, mice were stratified to treatment groups (n=8), so that each group had similar mean body weight.
An aged-matched group with ad-libitum access to standard chow was included as standard control group.
Before the experiment, mice were subcutaneously (s.c.) injected with vehicle solution and weighed for 3 days to acclimate them to the procedures.
(§1) 1) Acute effect on blood glucose in fed DIO mice: initial blood samples were taken just before first administration (s.c.) of vehicle (phosphate buffer solution) or the exendin-4 derivatives at doses of 3, 10, and 100 μg/kg (dissolved in phosphate puffer), respectively. The volume of administration was 5 mL/kg. The animals had access to water and their corresponding diet during the experiment, food consumption was determined at all time points of blood sampling. Blood glucose levels were measured at t=0.5 h, t=1 h, t=2 h, t=4 h, t=6 h, t=8 h, and t=24 h (method: d-glucose hexokinase, hemolysate, AU640 Beckman Coulter). Blood sampling was performed by tail incision without anaesthesia.
Statistical analyses were performed with Everstat 6.0 by repeated measures two-way ANOVA and Dunnetts post-hoc analyses (glucose profile) and 1-way-ANOVA, followed by Dunnetts post-hoc test (body weight, body fat). Differences versus vehicle-treated DIO control mice were considered statistically significant at the p<0.05 level.
After blood sampling to determine the blood glucose baseline level, fed diet-induced obese female C57BL/6NCrI mice were administered 3, 10 or 100 μg/kg of SEQ ID NO: 97 or phosphate buffered solution (vehicle control on standard or high-fat diet) subcutaneously. At predefined time points, more blood samples were taken to measure blood glucose and generate the blood glucose profile over 24 h.

female NMRI-mice = assay: Automated assessment of feed intake in mice; conditions: 22 hours
Procedure: Female NMRI-mice of a body weight between 20 and 30 g were used. Mice were adapted to housing conditions for at least one week and for at least one day single-caged in the assessment equipment, when basal data were recorded simultaneously. On the study day, test product was administered subcutaneously close to the lights-off phase (12 h lights off) and assessment of feed consumption was directly started afterwards. Assessment included continued monitoring (every 30 min) over 22 hours. Repetition of this procedure over several days was possible. Restriction of assessment to 22 hours was for practical reasons to allow for reweighing of animals, refilling of feed and water and drug administration between procedures. Results could be assessed as cumulated data over 22 hours or differentiated to 30 min intervals.
Statistical analyses were performed with Everstat 6.0 by two-way ANOVA on repeated measures and Dunnetts post-hoc analyses. Differences were considered statistically significant at the p<0.05 level.
Fed female NMRI-mice, weighing on average 25-30 g, were administered 0.01 or 0.1 mg/kg of SEQ ID NO: 97 or phosphate buffered saline (vehicle control) subcutaneously, directly prior to start of feeding monitoring (time=0 h). Lights-off phase (dark phase) started 4 hours later.

[2] = tested on: female leptin-receptor deficient diabetic db/db mice; assay: Acute effect on blood glucose in fed female db/db mice
Source text: Female BKS.Cg-m+/+Leprdb/J (db/db) and BKS.Cg-m+/+Leprdb/+ (lean control) mice were obtained from Charles River Laboratories, Germany, at an age of 9-10 weeks. The animals were housed in groups in a specific pathogen-free barrier facility on a 12-h light/dark cycle with free access to water and rodent-standard chow. After 1 week of acclimatization, blood samples were drawn from the tail without anaesthesia and blood glucose (method: d-glucose hexokinase, hemolysate, AU640 Beckman Coulter) and HbA1c level (method: hemolysate, Cobas6000 c501, Roche Diagnostics, Germany) were determined.
Db/db mice were stratified to treatment groups (n=8), so that each group had similar baseline blood glucose and HbA1c levels.
as §1, with “db/db” for “DIO”, “or” for “or the”, “chow” for “their corresponding diet”, “h.” for “h (method: d-glucose hexokinase, hemolysate, AU640 Beckman Coulter).”
Statistical analyses were performed with Everstat 6.0 by repeated measures two-way ANOVA and Dunnetts post-hoc analyses. Differences versus vehicle-treated db/db control mice were considered statistically significant at the p<0.05 level.
After blood sampling to determine the blood glucose baseline level, fed diabetic female db/db mice were administered 3, 10 or 100 μg/kg of SEQ ID NO: 97 or phosphate buffered solution (vehicle-treated db/db control) subcutaneously. At predefined time points, more blood samples were taken to measure blood glucose and generate the blood glucose profile over 24 h. […]

SEQ ID NO: 97: exendin-4 derivative, K(γE-x53) in position 14 (HXQGTFTSDLSKQKDSRRAQDFIEWLKNGGPSSGAPPPS; K14 side chain γE-x53; Exendin-4-analogue)
duration of decrease in blood glucose compared to DIO control mice ([1]; high dose (100 μg/kg s.c.)): > 24 h
duration of decrease in blood glucose compared to DIO control mice ([1]; low dose (3 μg/kg s.c.)): at least 8 h
duration of decrease in blood glucose compared to DIO control mice ([1]; medium dose (10 μg/kg s.c.)): at least 8 h
reduction of feed intake at the end of the study (female NMRI-mice; 0.01 mg/kg s.c.): 23%
reduction of feed intake at the end of the study (female NMRI-mice; 0.1 mg/kg s.c.): 66%
duration of decrease in blood glucose compared to db/db control mice ([2]; high dose (100 μg/kg s.c.)): > 24 h
duration of decrease in blood glucose compared to db/db control mice ([2]; low dose (3 μg/kg s.c.)): up to 8 h
duration of decrease in blood glucose compared to db/db control mice ([2]; medium dose (10 μg/kg s.c.)): up to 8 h
